Laboratory results reported in patent US9108960B2 (priority 2011, dated 2015).
In brackets after ≈: the same amount, converted by molar mass.

Legend:
[1] = test system: M. tuberculosis H37Rv; assay: Antimycobacterial assay, MIC by broth microdilution / Nitrate Reductase Assay; assay type: cell-based; conditions: Mycobacterium tuberculosis, exposure period 3-4 days
[2] = test system: M. tuberculosis Rif^R; assay: as above; assay type: cell-based; conditions: Mycobacterium tuberculosis, read-out: MIC M. tuberculosis Rif^R
[3] = test system: M. tuberculosis XDR-1; assay: as above; assay type: cell-based; conditions: Mycobacterium tuberculosis, XDR1, read-out: MIC M. tuberculosis XDR-1
[4] = test system: M. tuberculosis H37Rv; conditions: literature values (footnote *); cited from earlier work

## O=C(Nc1ccc(N2CCC(c3n[nH]c(=O)o3)CC2)cc1)c1ccc([N+](=O)[O-])o1 [Compound 8a, N2-4-[4-(5-Oxo-4,5-dihydro-1,3,4-oxadiazol-2-yl)piperidino]phenyl-5-nitro-2-furamide]
[1]
  MIC: 1 µg/mL (≈ 2.5 µM)
[2]
  MIC: 1 µg/mL (≈ 2.5 µM)
[3]
  MIC: 4 µg/mL (≈ 10 µM)

## CCn1nc(C2CCN(c3ccc(NC(=O)c4ccc([N+](=O)[O-])o4)cc3)CC2)oc1=O [Compound 8c, N2-4-[4-(4-Ethyl-5-oxo-4,5-dihydro-1,3,4-oxadiazol-2-yl)piperidino]phenyl-5-nitro-2-furamide]
[1]
  MIC: 1 µg/mL (≈ 2.34 µM)
[2]
  MIC: 2 µg/mL (≈ 4.68 µM)
[3]
  MIC: 4 µg/mL (≈ 9.36 µM)

## O=C(Nc1ccc(N2CCC(c3n[nH]c(=O)o3)CC2)c(F)c1)c1ccc([N+](=O)[O-])o1 [Compound 8e, N2-3-Fluoro-4-[4-(5-oxo-4,5-dihydro-1,3,4-oxadiazol-2-yl)piperidino]phenyl-5-nitro-2-furamide]
[1]
  MIC: 2 µg/mL (≈ 4.79 µM)
[2]
  MIC: 2 µg/mL (≈ 4.79 µM)
[3]
  MIC: 8 µg/mL (≈ 19.2 µM)

## Cn1nc(C2CCN(c3ccc(NC(=O)c4ccc([N+](=O)[O-])o4)cc3F)CC2)oc1=O [Compound 8f, N2-3-Fluoro-4-[4-(4-methyl-5-oxo-4,5-dihydro-1,3,4-oxadiazol-2-yl)piperidino]phenyl-5-nitro-2-furamide]
[1]
  MIC: 1 µg/mL (≈ 2.32 µM)
[2]
  MIC: 2 µg/mL (≈ 4.64 µM)
[3]
  MIC: 4 µg/mL (≈ 9.27 µM)

## CCn1nc(C2CCN(c3ccc(NC(=O)c4ccc([N+](=O)[O-])o4)cc3F)CC2)oc1=O [Compound 8g, N2-4-[4-(4-Ethyl-5-oxo-4,5-dihydro-1,3,4-oxadiazol-2-yl)piperidino]-3-fluorophenyl-5-nitro-2-furamide]
[1]
  MIC: 0.5 µg/mL (≈ 1.12 µM)
[2]
  MIC: 1 µg/mL (≈ 2.25 µM)
[3]
  MIC: 2 µg/mL (≈ 4.49 µM)

## O=c1[nH]nc(C2CCN(c3ccc(/N=C/c4ccc([N+](=O)[O-])o4)cc3)CC2)o1 [Compound 9a, 5-[1-(4-[(E)-1-(5-Nitro-2-furyl)methylidene]aminophenyl)-4-piperidyl]-2,3-dihydro-1,3,4-oxadiazol-2-one]
[1]
  MIC: 2 µg/mL (≈ 5.22 µM)
[2]
  MIC: 4 µg/mL (≈ 10.4 µM)
[3]
  MIC: 4 µg/mL (≈ 10.4 µM)

## Cn1nc(C2CCN(c3ccc(/N=C/c4ccc([N+](=O)[O-])o4)cc3)CC2)oc1=O [Compound 9b, 3-Methyl-5-[1-(4-[(E)-1-(5-nitro-2-furyl)methylidene]aminophenyl)-4-piperidyl]-2,3-dihydro-1,3,4-oxadiazol-2-one]
[1]
  MIC: 2 µg/mL (≈ 5.03 µM)
[2]
  MIC: 4 µg/mL (≈ 10.1 µM)
[3]
  MIC: 8 µg/mL (≈ 20.1 µM)

## CCn1nc(C2CCN(c3ccc(/N=C/c4ccc([N+](=O)[O-])o4)cc3)CC2)oc1=O [Compound 9c, 3-Ethyl-5-[1-(4-[(E)-1-(5-nitro-2-furyl)methylidene]aminophenyl)-4-piperidyl]-2,3-dihydro-1,3,4-oxadiazol-2-one]
[1]
  MIC: 1 µg/mL (≈ 2.43 µM)
[2]
  MIC: 2 µg/mL (≈ 4.86 µM)
[3]
  MIC: 4 µg/mL (≈ 9.72 µM)

## O=c1oc(C2CCN(c3ccc(/N=C/c4ccc([N+](=O)[O-])o4)cc3)CC2)nn1Cc1ccccc1 [Compound 9d, 3-Benzyl-5-[1-(4-[(E)-1-(5-nitro-2-furyl)methylidene]aminophenyl)-4-piperidyl]-2,3-dihydro-1,3,4-oxadiazol-2-one]
[1]
  MIC: 2 µg/mL (≈ 4.22 µM)
[2]
  MIC: 4 µg/mL (≈ 8.45 µM)
[3]
  MIC: 8 µg/mL (≈ 16.9 µM)

## O=c1[nH]nc(C2CCN(c3ccc(/N=C/c4ccc([N+](=O)[O-])o4)cc3F)CC2)o1 [Compound 9e, 5-[1-(2-Fluoro-4-[(E)-1-(5-nitro-2-furyl)methylidene]aminophenyl)-4-piperidyl]-2,3-dihydro-1,3,4-oxadiazol-2-one]
[1]
  MIC: 2 µg/mL (≈ 4.98 µM)
[2]
  MIC: 2 µg/mL (≈ 4.98 µM)
[3]
  MIC: 8 µg/mL (≈ 19.9 µM)

## Cn1nc(C2CCN(c3ccc(/N=C/c4ccc([N+](=O)[O-])o4)cc3F)CC2)oc1=O [Compound 9f, 5-[1-(2-Fluoro-4-[(E)-1-(5-nitro-2-furyl)methylidene]aminophenyl)-4-piperidyl]-3-methyl-2,3-dihydro-1,3,4-oxadiazol-2-one]
[1]
  MIC: 2 µg/mL (≈ 4.81 µM)
[2]
  MIC: 4 µg/mL (≈ 9.63 µM)
[3]
  MIC: 8 µg/mL (≈ 19.3 µM)

## CCn1nc(C2CCN(c3ccc(/N=C/c4ccc([N+](=O)[O-])o4)cc3F)CC2)oc1=O [Compound 9g, 3-Ethyl-5-[1-(2-fluoro-4-[(E)-1-(5-nitro-2-furyl)methylidene]aminophenyl)-4-piperidyl]-2,3-dihydro-1,3,4-oxadiazol-2-one]
[1]
  MIC: 1 µg/mL (≈ 2.33 µM)
[2]
  MIC: 2 µg/mL (≈ 4.66 µM)
[3]
  MIC: 4 µg/mL (≈ 9.32 µM)

## O=c1oc(C2CCN(c3ccc(/N=C/c4ccc([N+](=O)[O-])o4)cc3F)CC2)nn1Cc1ccccc1 [Compound 9h, 3-Benzyl-5-[1-(2-fluoro-4-[(E)-1-(5-nitro-2-furyl)methylidene]aminophenyl)-4-piperidyl]-2,3-dihydro-1,3,4-oxadiazol-2-one]
[1]
  MIC: 2 µg/mL (≈ 4.07 µM)
[2]
  MIC: 2 µg/mL (≈ 4.07 µM)
[3]
  MIC: 8 µg/mL (≈ 16.3 µM)

## O=c1[nH]nc(C2CCN(c3ccc(NCc4ccc([N+](=O)[O-])o4)cc3)CC2)o1 [Compound 10a, 5-[1-(4-[(5-Nitro-2-furyl)methyl]aminophenyl)-4-piperidyl]-2,3-dihydro-1,3,4-oxadiazol-2-one]
[1]
  MIC: 1 µg/mL (≈ 2.59 µM)
[2]
  MIC: 4 µg/mL (≈ 10.4 µM)
[3]
  MIC: 4 µg/mL (≈ 10.4 µM)

## Cn1nc(C2CCN(c3ccc(NCc4ccc([N+](=O)[O-])o4)cc3)CC2)oc1=O [Compound 10b, 3-Methyl-5-[1-(4-[(5-nitro-2-furyl)methyl]aminophenyl)-4-piperidyl]-2,3-dihydro-1,3,4-oxadiazol-2-one]
[1]
  MIC: 2 µg/mL (≈ 5.01 µM)
[2]
  MIC: 4 µg/mL (≈ 10 µM)
[3]
  MIC: 8 µg/mL (≈ 20 µM)

## CCn1nc(C2CCN(c3ccc(NCc4ccc([N+](=O)[O-])o4)cc3)CC2)oc1=O [Compound 10c, 3-Ethyl-5-[1-(4-[(5-nitro-2-furyl)methyl]aminophenyl)-4-piperidyl]-2,3-dihydro-1,3,4-oxadiazol-2-one]
[1]
  MIC: 1 µg/mL (≈ 2.42 µM)
[2]
  MIC: 1 µg/mL (≈ 2.42 µM)
[3]
  MIC: 4 µg/mL (≈ 9.68 µM)

## O=c1oc(C2CCN(c3ccc(NCc4ccc([N+](=O)[O-])o4)cc3)CC2)nn1Cc1ccccc1 [Compound 10d, 3-Benzyl-5-[1-(4-[(5-nitro-2-furyl)methyl]aminophenyl)-4-piperidyl]-2,3-dihydro-1,3,4-oxadiazol-2-one]
[1]
  MIC: 2 µg/mL (≈ 4.21 µM)
[2]
  MIC: 2 µg/mL (≈ 4.21 µM)
[3]
  MIC: 8 µg/mL (≈ 16.8 µM)

## O=c1[nH]nc(C2CCN(c3ccc(NCc4ccc([N+](=O)[O-])o4)cc3F)CC2)o1 [Compound 10e, 5-[1-(2-Fluoro-4-[(5-nitro-2-furyl)methyl]aminophenyl)-4-piperidyl]-2,3-dihydro-1,3,4-oxadiazol-2-one]
[1]
  MIC: 2 µg/mL (≈ 4.96 µM)
[2]
  MIC: 2 µg/mL (≈ 4.96 µM)
[3]
  MIC: 8 µg/mL (≈ 19.8 µM)

## Cn1nc(C2CCN(c3ccc(NCc4ccc([N+](=O)[O-])o4)cc3F)CC2)oc1=O [Compound 10f, 5-[1-(2-Fluoro-4-[(5-nitro-2-furyl)methyl]aminophenyl)-4-piperidyl]-3-methyl-2,3-dihydro-1,3,4-oxadiazol-2-one]
[1]
  MIC: 4 µg/mL (≈ 9.58 µM)
[2]
  MIC: 8 µg/mL (≈ 19.2 µM)
[3]
  MIC: 16 µg/mL (≈ 38.3 µM)

## CCn1nc(C2CCN(c3ccc(NCc4ccc([N+](=O)[O-])o4)cc3F)CC2)oc1=O [Compound 10g, 3-Ethyl-5-[1-(2-fluoro-4-[(5-nitro-2-furyl)methyl]aminophenyl)-4-piperidyl]-2,3-dihydro-1,3,4-oxadiazol-2-one]
[1]
  MIC: 2 µg/mL (≈ 4.64 µM)
[2]
  MIC: 4 µg/mL (≈ 9.27 µM)
[3]
  MIC: 4 µg/mL (≈ 9.27 µM)

## O=c1oc(C2CCN(c3ccc(NCc4ccc([N+](=O)[O-])o4)cc3F)CC2)nn1Cc1ccccc1 [Compound 10h, 3-Benzyl-5-[1-(2-fluoro-4-[(5-nitro-2-furyl)methyl]aminophenyl)-4-piperidyl]-2,3-dihydro-1,3,4-oxadiazol-2-one]
[1]
  MIC: 2 µg/mL (≈ 4.05 µM)
[2]
  MIC: 4 µg/mL (≈ 8.11 µM)
[3]
  MIC: 8 µg/mL (≈ 16.2 µM)

## O=C(Nc1cccc(F)c1)c1ccc([N+](=O)[O-])o1 [Compound 11a, N2-(3-fluorophenyl)-5-nitro-2-furamide]
[4]
  MIC M. tuberculosis H37Rv: 0.12 µg/mL (≈ 0.48 µM)

## O=C(Nc1ccncc1)c1ccc([N+](=O)[O-])o1 [Compound 11b, N2-(4-pyridyl)-5-nitro-2-furamide]
[4]
  MIC M. tuberculosis H37Rv: 0.8 µg/mL (≈ 3.43 µM)

## O=C(Nc1ccc(N2CCC(Cc3ccccc3)CC2)cc1)c1ccc([N+](=O)[O-])o1 [Compound 11c, N2-[4-(4-benzylpiperidino)phenyl]-5-nitro-2-furamide]
[4]
  MIC M. tuberculosis H37Rv: 3.12 µg/mL (≈ 7.7 µM)

## CC1CCCN(Cn2nc(-c3ccncc3)oc2=O)C1 (stereo not shown) [Compound 12a, 3-[(3-methylpiperidino)methyl]-5-(4-pyridyl)-2,3-dihydro-1,3,4-oxadiazol-2-one]
[4]
  MIC M. tuberculosis H37Rv: 3.13 µg/mL (≈ 11.4 µM)

## CN1CCN(Cn2nc(-c3ccncc3)oc2=O)CC1 [Compound 12b, 3-[(4-methylpiperazino)methyl]-5-(4-pyridyl)-2,3-dihydro-1,3,4-oxadiazol-2-one]
[4]
  MIC M. tuberculosis H37Rv: 1.25 µg/mL (≈ 4.54 µM)

## O=c1oc(-c2ccncc2)nn1CN1CCC(Cc2ccccc2)CC1 [Compound 12c, 3-[(4-benzylpiperidino)methyl]-5-(4-pyridyl)-2,3-dihydro-1,3,4-oxadiazol-2-one]
[4]
  MIC M. tuberculosis H37Rv: 2.5 µg/mL (≈ 7.13 µM)

## NNC(=O)c1ccncc1 [Isoniazid, reference compound]
[1]
  MIC: 2.5 µg/mL (≈ 18.2 µM)

## CO[C@H]1/C=C/O[C@@]2(C)Oc3c(C)c(O)c4c(O)c(c(/C=N/N5CCN(C)CC5)c(O)c4c3C2=O)NC(=O)/C(C)=C\C=C\[C@H](C)[C@H](O)[C@@H](C)[C@@H](O)[C@@H](C)[C@H](OC(C)=O)[C@@H]1C [Rifampicin, reference compound]
[1]
  MIC: 0.5 µg/mL (≈ 0.608 µM)
[2]
  MIC: > 128 µg/mL
[3]
  MIC: 2 µg/mL (≈ 2.43 µM)
